According to ChEMBL document CHEMBL5576127, “New CDDO Arylboronate Ester Derivatives with High Selectivity and Low Toxicity” (J Med Chem, 2024):
Activity calls are given as the source filed them. The rule behind the calls is not given here.

Tests used:
[1] = test system: MCF7; test: Antiproliferative activity against human MCF7 cells assessed as inhibition of cell proliferation incubated for 48 hrs by MTT assay; type: functional, cell-based; details: MCF7, 48 h
[2] = test system: BGC-823; test: Antiproliferative activity against human BGC-823 cells assessed as inhibition of cell proliferation incubated for 48 hrs by MTT assay; type: functional, cell-based; details: BGC-823, 48 h
[3] = test system: HepG2; test: Antiproliferative activity against human HepG2 cells assessed as inhibition of cell proliferation incubated for 48 hrs by MTT assay; type: functional, cell-based; details: HepG2, 48 h
[4] = Cytotoxicity against human MCF-10A cells assessed as inhibition of cell proliferation incubated for 48 hrs by MTT assay; type: toxicity, cell-based
[5] = Cytotoxicity against human GES1 cells assessed as inhibition of cell proliferation incubated for 48 hrs by MTT assay; type: toxicity, cell-based
[6] = Cytotoxicity against human L02 cells assessed as inhibition of cell proliferation incubated for 48 hrs by MTT assay; type: toxicity, cell-based
[7] = test system: MGC-803; test: Antiproliferative activity against human MGC-803 cells assessed as inhibition of cell proliferation incubated for 48 hrs by MTT assay; type: functional, cell-based; details: MGC-803, 48 h
[8] = test system: SGC-7901; test: Antiproliferative activity against human SGC-7901 cells assessed as inhibition of cell proliferation incubated for 48 hrs by MTT assay; type: functional, cell-based; details: SGC-7901, 48 h
[9] = test system: NCI-N87; test: Antiproliferative activity against human NCI-N87 cells assessed as inhibition of cell proliferation incubated for 48 hrs by MTT assay; type: functional, cell-based; details: NCI-N87, 48 h
[10] = test system: BGC-823; test: Antiproliferative activity against human BGC-823 cells assessed as inhibition of cell proliferation preincubated with H2O2 for 2 hrs followed by compound addition and measured after 48 hrs by MTT assay; type: functional, cell-based
[11] = Selectivity index, ratio of IC50 for cytotoxicity against human GES1 cells to IC50 for antiproliferative activity against human BGC-823 cells in presence of H2O2; type: toxicity, cell-based; details: GES1 cells and BGC-823 cells, read-out: Ratio IC50
[12] = test system: BGC-823; test: Induction of ROS generation in human BGC-823 cells assessed as cells with green fluorescence at 6 uM incubated for 24 hrs by DCFH-DA staining based analysis relative to control; type: functional
[13] = test system: Cell membrane; test: Induction of mitochondrial membrane potential loss in human BGC-823 cells assessed as increase in number of cells with J-monomers by measuring green fluorescence at 6 uM incubated for 24 hrs by JC-1 staining based flow cytometric analysis (reference value: 0.33%); type: cell membranes
[14] = test system: Cell membrane; test: Induction of mitochondrial membrane potential loss in human BGC-823 cells assessed as decrease in number of cells with J-aggregates by measuring red fluorescence at 6 uM incubated for 24 hrs by JC-1 staining based flow cytometric analysis (reference value: 99.7 %); type: cell membranes; parameters: scale not given: the % may be the effect or the level left
[15] = test system: BGC-823; test: Induction of apoptosis in human BGC-823 cells assessed as viable cells at 1.5 uM incubated for 48 hrs by Annexin V-FITC/PI staining based flow cytometric analysis ( Rvb = 90.09 %); type: functional; details: read-out: Activity
[16] = test system: BGC-823; test: Induction of apoptosis in human BGC-823 cells assessed as early apoptotic cells at 1.5 uM incubated for 48 hrs by Annexin V-FITC/PI staining based flow cytometric analysis ( Rvb = 1.68 %); type: functional
[17] = test system: BGC-823; test: Induction of apoptosis in human BGC-823 cells assessed as late apoptotic cells at 1.5 uM incubated for 48 hrs by Annexin V-FITC/PI staining based flow cytometric analysis ( Rvb = 5.61 %); type: functional
[18] = test system: BGC-823; test: Induction of apoptosis in human BGC-823 cells assessed as necrotic cells at 1.5 uM incubated for 48 hrs by Annexin V-FITC/PI staining based flow cytometric analysis ( Rvb = 1.79 %); type: functional
[19] = test system: BGC-823; test: Induction of apoptosis in human BGC-823 cells assessed as viable cells at 3 uM incubated for 48 hrs by Annexin V-FITC/PI staining based flow cytometric analysis ( Rvb = 90.09 %); type: functional; details: read-out: Activity
[20] = test system: BGC-823; test: Induction of apoptosis in human BGC-823 cells assessed as early apoptotic cells at 3 uM incubated for 48 hrs by Annexin V-FITC/PI staining based flow cytometric analysis ( Rvb = 1.68 %); type: functional
[21] = test system: BGC-823; test: Induction of apoptosis in human BGC-823 cells assessed as late apoptotic cells at 3 uM incubated for 48 hrs by Annexin V-FITC/PI staining based flow cytometric analysis ( Rvb = 5.61 %); type: functional
[22] = test system: BGC-823; test: Induction of apoptosis in human BGC-823 cells assessed as necrotic cells at 3 uM incubated for 48 hrs by Annexin V-FITC/PI staining based flow cytometric analysis ( Rvb = 1.79 %); type: functional
[23] = test system: BGC-823; test: Induction of apoptosis in human BGC-823 cells assessed as viable cells at 6 uM incubated for 48 hrs by Annexin V-FITC/PI staining based flow cytometric analysis ( Rvb = 90.09 %); type: functional; details: read-out: Activity
[24] = test system: BGC-823; test: Induction of apoptosis in human BGC-823 cells assessed as early apoptotic cells at 6 uM incubated for 48 hrs by Annexin V-FITC/PI staining based flow cytometric analysis ( Rvb = 1.68 %); type: functional
[25] = test system: BGC-823; test: Induction of apoptosis in human BGC-823 cells assessed as late apoptotic cells at 6 uM incubated for 48 hrs by Annexin V-FITC/PI staining based flow cytometric analysis ( Rvb = 5.61 %); type: functional
[26] = test system: BGC-823; test: Induction of apoptosis in human BGC-823 cells assessed as necrotic cells at 6 uM incubated for 48 hrs by Annexin V-FITC/PI staining based flow cytometric analysis ( Rvb = 1.79 %); type: functional
[27] = test system: BGC-823; test: Cell cycle arrest in human BGC-823 cells assessed as accumulation of cells at G2/M phase incubated for 24 hrs by PI staining based flow cytometric analysis; type: functional
[28] = test system: BGC-823; test: Antitumor activity against human BGC-823 cells xenografted in BALB/c nude mouse assessed as tumor growth inhibition at 5 mg/kg, ip administered for 21 days relative to control; type: functional; details: BGC-823, 504 h, time 21 day, read-out: TGI
[29] = Toxicity in BALB/c nude mouse xenografted with human BGC-823 cells assessed as change in body weight at 5 mg/kg, ip administered for 21 days; type: organism-based; details: in vivo, 504 h, time 21 day
[30] = test system: BGC-823; test: Antitumor activity against human BGC-823 cells xenografted in BALB/c nude mouse assessed as increase in ROS level in tumor at 5 mg/kg, ip administered for 21 days by DHE staining based analysis; type: functional, organism-based; details: time 21.0 day
[31] = test system: BGC-823; test: Antitumor activity against human BGC-823 cells xenografted in BALB/c nude mouse assessed as nuclear fragmentation in tumor at 5 mg/kg, ip administered for 21 days by H and E staining based analysis; type: functional, organism-based; details: time 21.0 day
[32] = test system: BGC-823; test: Antitumor activity against human BGC-823 cells xenografted in BALB/c nude mouse assessed as nuclear condensation in tumor at 5 mg/kg, ip administered for 21 days by H and E staining based analysis; type: functional, organism-based; details: time 21.0 day
[33] = Acute toxicity in ip dosed ICR mouse assessed as mortality rate by measuring ratio at 1.93 logarithm of dose relative to total number of mouse; type: organism-based; details: in vivo
[34] = Acute toxicity in ip dosed ICR mouse assessed as animal death at 1.82 logarithm of dose; type: organism-based; details: in vivo
[35] = Acute toxicity in ip dosed ICR mouse assessed as lethal dose; type: organism-based; details: in vivo
[36] = Acute toxicity in ip dosed ICR mouse assessed as effect on heart by H and E staining based analysis; type: organism-based; details: in vivo
[37] = Acute toxicity in ip dosed ICR mouse assessed as effect on liver by H and E staining based analysis; type: organism-based; details: in vivo
[38] = Acute toxicity in ip dosed ICR mouse assessed as effect on spleen by H and E staining based analysis; type: organism-based; details: in vivo
[39] = Acute toxicity in ip dosed ICR mouse assessed as effect on lung by H and E staining based analysis; type: organism-based; details: in vivo
[40] = Acute toxicity in ip dosed ICR mouse assessed as effect on kidney by H and E staining based analysis; type: organism-based; details: in vivo
[41] = test system: BGC-823; test: Antiproliferative activity against human BGC-823 cells assessed as reduction in cell viability at 0.52 to 7.68 uM preincubated with H2O2 for 2 hrs followed by compound addition and measured after 48 hrs by MTT assay; type: functional, cell-based; details: dose 0.52-7.68 µM
[42] = test system: BGC-823; test: Antiproliferative activity against human BGC-823 cells assessed as reduction in cell viability at 0.52 to 7.68 uM preincubated with NAC for 2 hrs followed by compound addition and measured after 48 hrs by MTT assay; type: functional, cell-based; details: dose 0.52-7.68 µM
[43] = Drug release in human BGC-823 cells assessed as increase in 4-((4-hydroxybenzoyl)oxy)butyl (4aS,6aR,6bS,8aR,12aS,14aR,14bS)-11-cyano-2,2,6a,6b,9,9,12a-heptamethyl-10,14-dioxo-1,3,4,5,6,6a,6b,7,8,8a,9,10,12a,14,14a,14b-hexadecahydropicene-4a(2H)-carboxylate concentration incubated for 4 hrs in absence of H2O2 by LC-MS analysis; type: ADME, cell-based; details: bgc-823, 4 h
[44] = Binding affinity to DTT in PBS assessed as UV peak appearance at 288 nm at 360 uM by UV-Vis spectra analysis
[45] = GSH reactivity in human BGC-823 cells assessed as GSSG/GSH ratio at 2 uM incubated for 24 hrs by microplate reader analysis (reference value: 0.34); type: ADME, cell-based; details: bgc-823, 24 h

Work on `CC1(C)CC[C@]2(C(=O)OCCCCOC(=O)c3ccc(OCc4ccc(B5OC(C)(C)C(C)(C)O5)cc4)cc3)CC[C@]3(C)[C@H](C(=O)C=C4[C@@]5(C)C=C(C#N)C(=O)C(C)(C)[C@@H]5CC[C@]43C)[C@@H]2C1` yielded an IC50 [1] of 2900 nM, an IC50 [2] of 2300 nM and an IC50 [3] of 6.5 µM. It also gave an IC50 at 48 h [4] of 5 µM, an IC50 at 48 h [5] of 4.5 µM and an IC50 at 48 h [6] of 6.5 µM. The IC50 [7] was 3.6 µM, the IC50 [8] was 3.2 µM and the IC50 [9] was 2500 nM. It also gave an IC50 [10] of 1200 nM, a selectivity ratio [11] of 4 and an Activity [12] of 35.7%. It also gave an Activity [13] of 37.1%, an Activity [14] of 62.7% and a viability at 1.5 µM [15] of 87.1%. The Activity [16] was 2.08%, the Activity [17] was 7.62% and the Activity [18] was 3.23%. The viability at 3 µM [19] was 82.8%, the Activity [20] was 2.13% and the Activity [21] was 9.84%. For the same compound, the Activity [22] was 5.24%, the viability at 6 µM [23] was 75.8% and the Activity [24] was 3.71%. For the same compound, the Activity [25] was 14.9%, the Activity [26] was 5.58% and the Activity [27] was “Dose-Dependent Effect”. The inhibition in vivo at 5 mg/kg [28] was 86.2%, the Activity [29] was “Non-Toxic” and the Activity [30] was “Active”. For the same compound, the Activity [31] was “Active”, the Activity [32] was “Active” and the Ratio [33] was 0.17. For the same compound, the Activity [34] was “Toxic”, the LD50 [35] was 91.2 mg/kg and the Activity [36] was “Non-Toxic”. For the same compound, the Activity [37] was “Non-Toxic”, the Activity [38] was “Non-Toxic” and the Activity [39] was “Non-Toxic”. For the same compound, the Activity [40] was “Non-Toxic”, the Activity [41] was “Active” and the Activity [42] was “inactive”. The Drug metabolism [43] was “Metabolite_Notdetected”, the Activity [44] was “inactive” and the Ratio [45] was 0.48.
